Test results: patent US20140263071A1, “METHOD FOR COLLECTING METALS” (CHEMEC OY AB, priority 2011, published 2014)

Key:
[1] = Collection of Sc^3+ from silicate soil (Example 25); settings: digested spiked silicate soil solution (20 ml); 1a 100 mg; 24 h
Description: Silicate soil (1000 g) was spiked with […] (767 mg). A sample (200 mg) was weighted to Teflon vial followed by adding concentrated HCl (9 ml) and HNO3 (3 ml) solutions. The mixture was heated under microwave for 50 min followed by adding HF (3 ml) and microvawe heating was continued until solids were dissolved totally. The resulting solution was treated with 4% H3BO3 (10 ml) with heating and sample A (5 ml) was taken. The rest of the solution (20 ml) was treated with 1a (100 mg) at room temperature for 24 h. After filtration trough 0.2 μm syringe filter Sc^3+ concentration before and after treated was determined by using AAS method to give 87% recovery of Sc^3+.

[2] = Simultaneous collection of Ni^2+, Zn^2+, Eu^3+, La^3+, Nd^3+, Y^3+, UO2^2+, Nb^5+ and Zr^4+ from TS 5 (Example 22); settings: TS 5, 1a 1 g/100 ml, 24 h
Description: (§1) A test solution containing 1-15 mg/l of Al^3+, Fe^2/3+, Mg^2+, Mn^2+, Ni^2+ and Zn^2+; 0.1-0.9 mg/l of Ca^2+ and Na^+; and trace amount of other Cr^3+, Co^2+, Cu^2+, Eu^3+, La^3+, Nd^3+, Y^3+, UO2^2+ and Nb^5+ cations were prepared.
TS 5 (100 ml) was stirred with 1a (1 g) at room temperature for 24 h. After filtration trough 0.2 μm syringe filter metal concentration of Ni^2+, Zn^2+, Eu^3+, La^3+, Nd^3+, Y^3+, UO2^2+, Nb^5+ and Zr^4+ were determined by using ICP-AES and ICP-MS methods. The expulsions percent was calculated for each element from the concentration difference between initial and final solutions and the experimental results are given in Table 16.

[3] = Effect of contact time on expulsion percent, Pb^2+ and Hg^2+ spiked TS 5, 1a 100 mg/100 ml (Example 13)
Description: as §1
Effect of contact time to selected metal expulsion per cents was tested using TS 5 with comlexation agent 1a. TS 5 (100 ml), spiked with known amounts of lead (Pb^2+) and mercury (Hg^2+) cations, was stirred with 1a (100 mg) for selected times followed by separation of 1a by filtration trough 0.2 μm syringe filter. Metal concentrations after 5 min, 15 min, 30 min, 1 h, 2 h, 3.5 h, 6.5 h and 29.5 h were determined by using ICP-AES analysis.

NCCCCCCCCCCC(O)(P(=O)(O)O)P(=O)(O)O [Compound 1a, 11-Amino-1-hydroxyundecane-1,1-diyldiphosphonic acid]
recovery of Sc^3+ [1]: 87% | Expulsion [%] ([2]; Eu^3+): 98% | Expulsion [%] ([2]; La^3+): 100% | Expulsion [%] ([2]; Nb^5+): 100% | Expulsion [%] ([2]; Nd^3+): 100% | Expulsion [%] ([2]; Ni^2+): 72% | Expulsion [%] ([2]; UO2^2+): 100% | Expulsion [%] ([2]; Y^3+): 100% | Expulsion [%] ([2]; Zn^2+): 97% | Expulsion [%] ([2]; Zr^4+): 100% | Expulsion [%] ([3]; Al^3+, 5 min): 8.3% | Expulsion [%] ([3]; Al^3+, 15 min): 5.5% | Expulsion [%] ([3]; Al^3+, 30 min): 7.1% | Expulsion [%] ([3]; Al^3+, 60 min): 5.9% | Expulsion [%] ([3]; Al^3+, 120 min): 8.7% | Expulsion [%] ([3]; Al^3+, 210 min): 18.5% | Expulsion [%] ([3]; Al^3+, 390 min): 26.0% | Expulsion [%] ([3]; Al^3+, 1770 min): 27.2% | Expulsion [%] ([3]; Ca^2+, 5 min): 2.7% | Expulsion [%] ([3]; Ca^2+, 15 min): 0% | Expulsion [%] ([3]; Ca^2+, 30 min): 0% | Expulsion [%] ([3]; Ca^2+, 60 min): 0% | Expulsion [%] ([3]; Ca^2+, 120 min): 0% | Expulsion [%] ([3]; Ca^2+, 210 min): 0% | Expulsion [%] ([3]; Ca^2+, 390 min): 9.8% | Expulsion [%] ([3]; Ca^2+, 1770 min): 18.7% | Expulsion [%] ([3]; Cd^2+, 5 min): 2.9% | Expulsion [%] ([3]; Cd^2+, 15 min): 3.9% | Expulsion [%] ([3]; Cd^2+, 30 min): 5.1% | Expulsion [%] ([3]; Cd^2+, 60 min): 7.5% | Expulsion [%] ([3]; Cd^2+, 120 min): 10.9% | Expulsion [%] ([3]; Cd^2+, 210 min): 15.0% | Expulsion [%] ([3]; Cd^2+, 390 min): 28.1% | Expulsion [%] ([3]; Cd^2+, 1770 min): 36.6% | Expulsion [%] ([3]; Fe^2/3+, 5 min): 0% | Expulsion [%] ([3]; Fe^2/3+, 15 min): 0.7% | Expulsion [%] ([3]; Fe^2/3+, 30 min): 0% | Expulsion [%] ([3]; Fe^2/3+, 60 min): 3.0% | Expulsion [%] ([3]; Fe^2/3+, 120 min): 6.7% | Expulsion [%] ([3]; Fe^2/3+, 210 min): 8.9% | Expulsion [%] ([3]; Fe^2/3+, 390 min): 20.7% | Expulsion [%] ([3]; Fe^2/3+, 1770 min): 19.3% | Expulsion [%] ([3]; Hg^2+, 5 min): 59.9% | Expulsion [%] ([3]; Hg^2+, 15 min): 60.4% | Expulsion [%] ([3]; Hg^2+, 30 min): 58.5% | Expulsion [%] ([3]; Hg^2+, 60 min): 56.4% | Expulsion [%] ([3]; Hg^2+, 120 min): 57.1% | Expulsion [%] ([3]; Hg^2+, 210 min): 55.7% | Expulsion [%] ([3]; Hg^2+, 390 min): 57.0% | Expulsion [%] ([3]; Hg^2+, 1770 min): 49.6% | Expulsion [%] ([3]; Mg^2+, 5 min): 1.4% | Expulsion [%] ([3]; Mg^2+, 15 min): 1.8% | Expulsion [%] ([3]; Mg^2+, 30 min): 0.2% | Expulsion [%] ([3]; Mg^2+, 60 min): 4.4% | Expulsion [%] ([3]; Mg^2+, 120 min): 5.8% | Expulsion [%] ([3]; Mg^2+, 210 min): 6.9% | Expulsion [%] ([3]; Mg^2+, 390 min): 16.4% | Expulsion [%] ([3]; Mg^2+, 1770 min): 19.8% | Expulsion [%] ([3]; Mn^2+, 5 min): 3.4% | Expulsion [%] ([3]; Mn^2+, 15 min): 4.3% | Expulsion [%] ([3]; Mn^2+, 30 min): 4.3% | Expulsion [%] ([3]; Mn^2+, 60 min): 6.3% | Expulsion [%] ([3]; Mn^2+, 120 min): 10.5% | Expulsion [%] ([3]; Mn^2+, 210 min): 13.1% | Expulsion [%] ([3]; Mn^2+, 390 min): 27.0% | Expulsion [%] ([3]; Mn^2+, 1770 min): 29.1% | Expulsion [%] ([3]; Ni^2+, 5 min): 1.4% | Expulsion [%] ([3]; Ni^2+, 15 min): 1.8% | Expulsion [%] ([3]; Ni^2+, 30 min): 1.4% | Expulsion [%] ([3]; Ni^2+, 60 min): 4.1% | Expulsion [%] ([3]; Ni^2+, 120 min): 5.0% | Expulsion [%] ([3]; Ni^2+, 210 min): 7.8% | Expulsion [%] ([3]; Ni^2+, 390 min): 13.2% | Expulsion [%] ([3]; Ni^2+, 1770 min): 15.5% | Expulsion [%] ([3]; Pb^2+, 5 min): 28.5% | Expulsion [%] ([3]; Pb^2+, 15 min): 34.7% | Expulsion [%] ([3]; Pb^2+, 30 min): 56.3% | Expulsion [%] ([3]; Pb^2+, 60 min): 49.4% | Expulsion [%] ([3]; Pb^2+, 120 min): 65.7% | Expulsion [%] ([3]; Pb^2+, 210 min): 89.8% | Expulsion [%] ([3]; Pb^2+, 390 min): 94.6% | Expulsion [%] ([3]; Pb^2+, 1770 min): 98.1% | Expulsion [%] ([3]; Zn^2+, 5 min): 2.5% | Expulsion [%] ([3]; Zn^2+, 15 min): 3.7% | Expulsion [%] ([3]; Zn^2+, 30 min): 4.9% | Expulsion [%] ([3]; Zn^2+, 60 min): 6.5% | Expulsion [%] ([3]; Zn^2+, 120 min): 9.8% | Expulsion [%] ([3]; Zn^2+, 210 min): 13.9% | Expulsion [%] ([3]; Zn^2+, 390 min): 27.1% | Expulsion [%] ([3]; Zn^2+, 1770 min): 30.8%
